Results reported in PubChem BioAssay (NCI).
Values joined by “and” are separate entries in the source; they are usually repeats but may differ in a detail not shown here. Identical values can stand only once.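 Grown in 96-well plates, cells were treated for 48 hours with each compound at five concentrations. Insufficient inhibition: endpoint recorded as highest concentration tested. GI50 is the concentration that inhibits growth by half. TGI: concentration producing complete growth inhibition.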

How the values were obtained:
Test in all cases: NCI-60 cell line screen, 48 h
[1] = test system: OVCAR-4 ovarian
[2] = test system: SK-OV-3 ovarian
[3] = test system: M14 melanoma
[4] = test system: ACHN renal
[5] = test system: HCT-116 colon
[6] = test system: CCRF-CEM leukemia
[7] = test system: KM12 colon
[8] = test system: NCI/ADR-RES ovarian
[9] = test system: BT-549 breast
[10] = test system: MCF7 breast

Row | Structure (SMILES) | GI50 [1] | TGI [1] | GI50 [2] | TGI [2] | GI50 [3] | TGI [3] | GI50 [4] | TGI [4] | GI50 [5] | TGI [5] | GI50 [6] | TGI [6] | GI50 [7] | TGI [7] | GI50 [8] | TGI [8] | GI50 [9] | TGI [9] | GI50 [10] | TGI [10]
1 | CC(=O)[CH-]C(=O)Nc1ccccc1.CC(=O)[CH-]C(=O)Nc1ccccc1.CC[O-].CC[O-].[Ti+4] | > 100 µM | > 100 µM | > 100 µM | > 100 µM | > 100 µM | > 100 µM | > 100 µM | > 100 µM | > 100 µM | > 100 µM | > 100 µM | > 100 µM | > 100 µM | > 100 µM |  |  |  |  |  | 
2 | CN1CCc2c1nc(-c1cccnc1)c1c2N(C)CC1 |  | > 100 µM |  | > 100 µM |  | > 100 µM |  | > 100 µM |  | > 100 µM |  | > 100 µM |  | > 100 µM |  |  |  |  |  | 
3 | N.N.N.N.N.O=S(=O)([O-])C(F)(F)F.O=S(=O)([O-])C(F)(F)F.[Os+8] |  |  | 20.6 µM | 60.2 µM | 14.2 µM | 28.7 µM | 19.8 µM | > 100 µM | 5.37 µM | 18 µM | 6.89 µM | 40.6 µM | 13.7 µM | 35 µM |  |  |  |  |  | 
4 | CCN(C(=O)CN1CCN(c2cc3c(cc2F)c(=O)c(C(=O)O)cn3CC)CC1)c1nc(-c2ccccc2)cs1 | 0.347 µM | > 100 µM |  |  | 0.363 µM | > 100 µM | 0.33 µM | > 100 µM | 0.378 µM | > 100 µM | 0.427 µM | > 100 µM | 0.393 µM | > 100 µM | 0.331 µM | > 100 µM | 0.344 µM | > 100 µM | 0.295 µM | > 100 µM
5 | COC(=O)C#CCC1CCCC1C1SCCS1 (stereo unspecified) |  | > 100 µM |  | > 100 µM |  | > 100 µM |  | > 100 µM |  | > 100 µM |  | 72.3 µM |  | > 100 µM |  |  |  |  |  | 
6 | O=C(N/C(=C\c1cc(Cl)ccc1Cl)c1nc2ccc(Cl)cc2[nH]1)c1ccccc1 |  | 68.6 µM |  | 51.8 µM |  | 31.1 µM |  | 78.1 µM |  | 22.3 µM |  | 51.4 µM |  | 29.4 µM |  |  |  |  |  | 
7 | NCCC(=O)NC(Cc1cnc[nH]1)C(=O)O (stereo unspecified) |  | > 100 µM |  |  |  | > 100 µM |  | > 100 µM |  | > 100 µM |  | > 100 µM |  | > 100 µM |  | > 100 µM |  |  |  | > 100 µM
8 | CCSc1nc(N)c(C#N)c(-c2ccco2)c1C#N | > 100 µM | > 100 µM | 53.3 µM | > 100 µM | 48.1 µM | > 100 µM | 16.9 µM | 69.2 µM | 26.8 µM | > 100 µM |  |  | 27.4 µM | > 100 µM | 34 µM | > 100 µM | 32.3 µM | > 100 µM | 15 µM | > 100 µM
9 | CCN(CC)CCCC(C)Nc1c(Sc2cnc3cc(Cl)ccc3c2NC(C)CCCN(CC)CC)cnc2cc(Cl)ccc12 (stereo unspecified) |  | 3.22 µM |  | 3.08 µM |  | 3.29 µM |  | 3.82 µM |  | 2.95 µM |  | 5.21 µM |  | 3.79 µM |  |  |  |  |  | 
10 | COc1cccc2c1[C@H]1CO[C@H]3C4C[C@H](C(=O)O)C([C@@H](C2)N13)N4C (stereo partly specified) | 0.99 µM | 8.21 µM and 10.5 µM | 6.06 µM and 0.803 µM | 7.84 µM and 1.75 µM |  | 6.35 µM |  |  |  |  | 2.42 µM and 1.6 µM |  | 5.21 µM and 0.685 µM | 1.64 µM |  | 7.74 µM |  | 0.339 µM | 0.296 µM | 10 µM
11 | CCCCc1c2c(nc3c1CCc1cc4cc5c(nc4nc1-3)-c1nc3c(c(CCCC)c1CC5)CCC/C3=C\c1ccccc1)/C(=C/c1ccccc1)CCC2 |  |  |  | > 100 µM |  | > 100 µM |  | > 100 µM |  | > 100 µM |  | > 100 µM |  | > 100 µM |  |  |  |  |  | 
12 | O=C(COc1ccc(Cl)cc1)N1CCN(C(=O)COc2ccc(Cl)cc2)c2ccccc21 |  |  |  | > 100 µM |  |  |  | > 100 µM |  | > 100 µM |  | > 100 µM |  | > 100 µM |  |  |  |  |  | 
13 | CCN(CC)C(=S)SSC(=S)N(CC)CC | 13.5 µM and 13 µM | 28.9 µM and 26.4 µM | 49.4 µM and 58.9 µM | 173 µM | 12.1 µM and 12.6 µM | 28.9 µM and 28.1 µM | 19 µM and 18 µM | 36.9 µM and 34.4 µM | 11.4 µM | 24.9 µM | 10.3 µM | 27.6 µM | 14.4 µM and 13.7 µM | 30.7 µM and 28.2 µM | 18.1 µM and 17.6 µM | 39.9 µM and 37.9 µM | 19.2 µM and 19.9 µM | 38 µM and 44.2 µM |  | 
14 | COc1ccc(-c2onc(-c3c(C)cc(C)cc3C)c2C2=NCCN2)cc1 |  | > 100 µM |  | > 100 µM |  | 35.8 µM |  | > 100 µM |  | > 100 µM |  | > 100 µM |  | > 100 µM |  |  |  |  |  | 
15 | CCN(CC)CCC(CNc1c(C)cnc2cc(Cl)ccc12)c1ccc(Cl)cc1 (stereo unspecified) | 4.17 µM | 21.1 µM | 15.1 µM | 28.9 µM |  |  | 6.47 µM | 20.1 µM |  |  | 4.32 µM | 19.2 µM | 11 µM | 25.3 µM | 10.2 µM | 23.5 µM | 11.2 µM | 24.9 µM | 3.27 µM | 16.3 µM
16 | CC(=O)NNc1nc(C)c(C(=O)/C=C/c2ccc(/C=C/C(=O)c3sc(NNC(C)=O)nc3C)cc2)s1 |  | > 100 µM |  | > 100 µM |  | > 100 µM |  | > 100 µM |  | > 100 µM |  | > 100 µM |  | > 100 µM |  |  |  |  |  | 
17 | COc1ccc2c(c1)C(=O)c1c-2n(CCCN)c(=O)c2cc([N+](=O)[O-])ccc12 |  |  | < 0.01 µM | < 0.01 µM | < 0.01 µM | < 0.01 µM |  |  | < 0.01 µM | 0.0119 µM | < 0.01 µM | < 0.01 µM | 1.5 µM | 3.46 µM |  |  | < 0.01 µM |  | < 0.01 µM | < 0.01 µM
18 | C#C[C@H]1CCCCCC1O (stereo partly specified) |  | > 100 µM |  | > 100 µM |  | > 100 µM |  | > 100 µM |  | > 100 µM |  | > 100 µM |  | > 100 µM |  |  |  |  |  | 
19 | Nc1cc2cccc[n+]2c2cccc(Cl)c12 | 17.1 µM | 72.8 µM |  |  | 36.4 µM |  | 41.8 µM |  | 36.9 µM |  | 12 µM | 94.4 µM | 4.1 µM | 65.2 µM |  |  | 16.1 µM | 48.8 µM | 19.4 µM | 
